The source made the active and inactive calls.

We go through 13 compounds from ChEMBL document CHEMBL1201862, “PubChem BioAssay data set” (2004).

The nature of assay [1]: cells.
For assay [2], the target named is T1, Runt-related transcription factor 1/Core-binding factor subunit beta (Homo sapiens, UniProt Q01196+Q13951). Briefly: disruptors of Runt domain/CBFb-SMMHC interaction – biochemical, FRET, Cerulean-Runt, Venus-CBFb-SMMHC, uHTS, […] (AID 1434). Format: protein assay.
The nature of assay [3]: cells. As to conditions: HEK293.
In assay [4] the target is T1, Runt-related transcription factor 1/Core-binding factor subunit beta. Briefly: Runt domain/CBFb-SMMHC interaction disruptors – biochemical, TR-FRET (AID 1438). Format: protein assay. A general note: Time-resolved FRET reads energy transfer from a long-lived donor to a nearby acceptor.
Assay [5] can be described thus: cells. As to conditions: A549.
Assay [6] deals with Disintegrin and metalloproteinase domain-containing protein 17 (Homo sapiens, UniProt P78536). Briefly: inhibition of ADAM17 substrate cleavage – biochemical, quenched FRET substrate, counter-screen for ADAM10 exosite inhibitor project, dose response (AID 743253). Background: A counterscreen serves to expose hits that act by an unwanted route or on another target.
Sequence of Disintegrin and metalloproteinase domain-containing protein 17 (P78536 whole entry, the tested form may be a part): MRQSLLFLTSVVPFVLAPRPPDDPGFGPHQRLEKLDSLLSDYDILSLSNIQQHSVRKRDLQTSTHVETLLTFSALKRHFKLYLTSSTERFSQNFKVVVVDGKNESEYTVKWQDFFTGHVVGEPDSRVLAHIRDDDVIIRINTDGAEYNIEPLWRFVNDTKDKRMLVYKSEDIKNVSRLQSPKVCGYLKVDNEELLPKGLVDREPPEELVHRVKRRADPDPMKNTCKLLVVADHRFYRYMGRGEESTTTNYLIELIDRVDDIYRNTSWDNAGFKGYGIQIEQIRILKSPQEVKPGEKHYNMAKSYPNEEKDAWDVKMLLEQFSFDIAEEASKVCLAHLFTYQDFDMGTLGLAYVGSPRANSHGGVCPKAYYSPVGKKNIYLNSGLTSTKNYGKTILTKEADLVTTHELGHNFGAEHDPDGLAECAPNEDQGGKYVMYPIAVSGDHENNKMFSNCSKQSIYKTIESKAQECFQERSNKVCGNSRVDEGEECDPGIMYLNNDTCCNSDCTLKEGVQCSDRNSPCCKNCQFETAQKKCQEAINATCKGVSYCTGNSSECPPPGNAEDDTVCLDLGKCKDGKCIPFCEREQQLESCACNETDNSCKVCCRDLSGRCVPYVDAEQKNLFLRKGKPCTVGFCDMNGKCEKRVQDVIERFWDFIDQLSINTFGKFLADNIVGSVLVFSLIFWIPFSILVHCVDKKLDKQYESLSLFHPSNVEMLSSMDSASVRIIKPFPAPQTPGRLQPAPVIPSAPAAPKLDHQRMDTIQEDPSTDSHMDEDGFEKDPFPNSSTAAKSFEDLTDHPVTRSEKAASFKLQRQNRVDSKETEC
Assay [7] is described as follows: potency of ADAM10 substrate cleavage blockers – biochemical, QFRET, dose response (AID 743254).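 Also: ADAM10 enzyme with the DM2 quenched FRET peptide as substrate; EDANS fluorescence gain as the protease cuts the substrate; inhibitor potency against ADAM10 proteolytic activity.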
The nature of assay [8]: OVCAR-3 cell viability loss – plate reader, dry powder samples, PAX8 inhibitor project, dose response (AID 743044). Format: functional, cell-based.
A further assay deals with Paired box protein Pax-8 (Homo sapiens, UniProt Q06710). The assay is described as follows: PAX8 transcriptional activity inhibition in RMG-I – RMG-I cells, luciferase, cherry-pick, dose response (AID 687027).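 Also: luciferase reporter driven by Pax8 target thyroperoxidase promoter measured by SteadyGlo luminescence.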 Type of assay: functional, cell-based.
Sequence of Paired box protein Pax-8 (Q06710 whole entry): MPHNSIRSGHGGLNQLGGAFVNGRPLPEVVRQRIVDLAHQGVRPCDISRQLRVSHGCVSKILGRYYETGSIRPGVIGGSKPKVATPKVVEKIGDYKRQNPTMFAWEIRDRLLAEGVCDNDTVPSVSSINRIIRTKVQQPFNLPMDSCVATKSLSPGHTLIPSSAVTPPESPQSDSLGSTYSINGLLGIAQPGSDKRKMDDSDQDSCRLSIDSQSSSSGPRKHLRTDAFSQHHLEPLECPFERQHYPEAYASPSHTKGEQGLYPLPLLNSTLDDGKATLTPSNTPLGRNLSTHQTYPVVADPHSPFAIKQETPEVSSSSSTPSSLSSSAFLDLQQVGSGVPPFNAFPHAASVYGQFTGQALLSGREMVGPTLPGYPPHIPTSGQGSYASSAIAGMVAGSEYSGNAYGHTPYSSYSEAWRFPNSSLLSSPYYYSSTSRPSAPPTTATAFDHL
Assay [9] in a line: A2780 cell killing – plate reader, dry powder samples, cytotoxicity control, dose response (AID 743046). Format: functional, cell-based.
A short description of assay [10]: HEK293 Cytotoxicity Assay Measured in Cell-Based System Using Plate Reader - 7071-01_Inhibitor_Dose_CherryPick_Activity_Set2. Type of assay: functional.
For a further assay, the system named is HEK293. Briefly: viability loss in HEK293T cells – cell-based, ATP luminescence, cherry-pick samples, cytotoxicity control, dose response (AID 687005).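 Also: cells exposed to compound for 48 hours.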 Type of assay: functional. As to conditions: Homo sapiens.
A short description of assay [11]: COV434 cell viability loss – plate reader, dry powder, SA7, cytotoxicity control for PAX8 inhibitor project, dose response (AID 743145). Type of assay: functional, cell-based.
Assay [12] in a line: COV362 cell viability loss – plate reader, dry powder, SA12, cytotoxicity control for PAX8 inhibitor project, dose response (AID 743144). Type of assay: functional, cell-based.
Assay [13] is described as follows: IGROV1 cell killing – plate reader, dry powder samples, PAX8 inhibitor project, dose response (AID 743043). As to conditions: IGROV-1. Format: functional, cell-based.
The nature of assay [14]: inhibitors acting on PAX2 in cells – cell-based, plate reader, dry powder samples, selectivity assay for PAX8 inhibitor project, dose response (AID 743048).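 Also: HEK293 cells carrying a WT1 promoter luciferase reporter driven by expressed Pax2; potency is for inhibition of Pax2 driven reporter signal.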 Type of assay: functional.
A short description of assay [15]: PAX5 cellular inhibition readout – cell-based, plate reader, dry powder samples, selectivity assay for PAX8 inhibitor project, dose response (AID 743047).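 Also: HEK293 cells carrying a Pax5 driven CD19 promoter luciferase reporter; potency of inhibitors that lower reporter luminescence.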 Format: functional.
Assay [16] can be described thus: OVCAR8 cell viability loss – plate reader, dry powder samples, PAX8 project, dose response (AID 743197). Type of assay: functional, cell-based. As to conditions: OVCAR-8.
Assay [17] can be described thus: PAX8-dependent cell viability loss – plate reader, dry powder, dose response (AID 743049). Format: functional, cell-based.
The target in assay [18] is NAD-dependent protein deacylase sirtuin-5, mitochondrial (Homo sapiens, UniProt Q9NXA8). Briefly: blockers of sirtuin-5 peptide desuccinylation – biochemical, fluorescence imaging, cherry-pick, set 6, dose response (AID 720597).
Sequence of NAD-dependent protein deacylase sirtuin-5, mitochondrial (Q9NXA8 whole entry): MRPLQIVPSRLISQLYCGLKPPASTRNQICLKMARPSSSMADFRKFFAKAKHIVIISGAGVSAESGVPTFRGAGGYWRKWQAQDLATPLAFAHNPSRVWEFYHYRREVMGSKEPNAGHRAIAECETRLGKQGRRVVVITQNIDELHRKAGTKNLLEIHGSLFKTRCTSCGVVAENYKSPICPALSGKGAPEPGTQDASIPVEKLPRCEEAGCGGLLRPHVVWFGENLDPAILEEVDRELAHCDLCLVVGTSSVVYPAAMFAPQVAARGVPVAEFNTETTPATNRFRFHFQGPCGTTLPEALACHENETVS
A short description of assay [19]: Late stage assay provider results from the probe development effort to identify inhibitors of the Plasmodium falciparum M18 Aspartyl Aminopeptidase (M18AAP): radiolabel-based cell-based dose response assay to identify compounds that inhibit P. falciparum growth in RBCs, Set 2.. Type of assay: functional.
The nature of assay [20]: inhibitors of orthopox intermediate gene expression, dose response, cell-based, single fluorophore reporter, dry powder (AID 1117271). Format: functional.
A short description of assay [21]: lung carcinoma cell viability loss – CellTiter-Glo luminescence, dry powder, set 17, dose response (AID 1117284). Format: functional, cell-based. As to conditions: A549. A general note: Cellular ATP, detected with luciferase, serves as a proxy for viable cell number.
Assay [22] is described as follows: Orthopox viral replication plaque formation Measured in Cell-Based and Microorganism Combination System Using Imaging - 2142-05_Inhibitor_Dose_DryPowder_Activity. Format: functional.
Assay [23] in a line: Single fluorophore orthopox expression reporter, late gene expression Measured in Cell-Based and Microorganism Combination System Using Plate Reader - 2142-08_Inhibitor_Dose_DryPowder_Activity. Format: functional.
The nature of assay [24]: cells. The note with it: HEK293. This is another data set of the same source.
The nature of assay [25]: toxicity to A549 lung cells – cell-based, plate reader, dry powder, set 6, cytotoxicity control, dose response (AID 743312). Format: functional.
A short description of assay [26]: TB: CFU replicating Measured in Microorganism System Using Imaging - 7108-05_Inhibitor_Dose_DryPowder_Activity_Set2. Type of assay: functional.
Assay [27] can be described thus: CellTiter-Glo luminescence survival assay, SW480 colon tumor line, concentration-response curve, half-maximal inhibitory concentration (AID 1117338). Format: functional.
Assay [28] in a line: cytotoxicity toward HCT116 cells – cell-based, CellTiter-Glo luminescence, IC50, dose response (AID 1117332). As to conditions: HCT-116. Type of assay: functional.
A short description of assay [29]: RKO cell viability reduction, dose response, CellTiter-Glo luminescence (AID 1117322). Format: functional.
The nature of assay [30]: HCT116 cell viability decrease, GSK3B pretreatment – CellTiter-Glo, IC50, dose response (AID 1117339). Type of assay: functional. As to conditions: HCT-116.
Assay [31] is described as follows: cytotoxicity toward Colo320 cells – cell-based, CellTiter-Glo luminescence, IC50, dose response (AID 1117334). Format: functional. The note with it: COLO 320.
The nature of assay [32]: SNU-C1 cell viability reduction, dose response, CellTiter-Glo luminescence (AID 1117323). Type of assay: functional, cell-based.
In the next assay the test system is P388. The assay is described as follows: cells. The note with it: Mus musculus. Type of assay: functional.
Assay [33] in a line: Reduced DLD-1 viability, concentration-response, CellTiter-Glo luminescence (AID 1117352). Type of assay: functional.
A short description of assay [34]: cytotoxicity toward HT-29 cells – cell-based, CellTiter-Glo luminescence, IC50, dose response (AID 1117330). Type of assay: functional.
The subject of a further assay is P388/ADR. The assay is described as follows: cells. Format: functional. The note with it: Mus musculus.
The nature of assay [35]: cells. Format: functional, cell-based. As to conditions: INS-1E.
Assay [36] is described as follows: IC50 of insulin release inhibition, rat insulinoma INS-1E line, 5 mM glucose, cell-based (AID 1117331). Type of assay: functional.
Assay [37] is described as follows: rise of 4N DNA cells, HeLa – IC50, dose response (AID 1117351). Type of assay: functional, cell-based.
A short description of assay [38]: rise of 2N DNA cells, HeLa – IC50, dose response (AID 1117349). Format: functional, cell-based.

T1 sequence (Q01196 whole entry, the tested form may be a part): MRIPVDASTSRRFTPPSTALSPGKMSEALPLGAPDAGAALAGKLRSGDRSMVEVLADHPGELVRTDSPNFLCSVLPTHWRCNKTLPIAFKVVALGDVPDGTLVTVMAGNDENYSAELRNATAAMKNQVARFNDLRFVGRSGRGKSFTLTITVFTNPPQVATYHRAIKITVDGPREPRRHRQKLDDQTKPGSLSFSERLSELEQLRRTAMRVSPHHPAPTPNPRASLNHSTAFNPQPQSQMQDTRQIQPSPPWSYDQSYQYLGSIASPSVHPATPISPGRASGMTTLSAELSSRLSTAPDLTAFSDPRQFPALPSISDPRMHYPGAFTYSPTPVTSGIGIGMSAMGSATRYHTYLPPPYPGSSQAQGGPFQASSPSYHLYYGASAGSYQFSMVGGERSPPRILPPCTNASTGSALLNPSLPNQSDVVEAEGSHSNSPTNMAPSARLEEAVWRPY
T1 sequence (Q13951 whole entry, the tested form may be a part): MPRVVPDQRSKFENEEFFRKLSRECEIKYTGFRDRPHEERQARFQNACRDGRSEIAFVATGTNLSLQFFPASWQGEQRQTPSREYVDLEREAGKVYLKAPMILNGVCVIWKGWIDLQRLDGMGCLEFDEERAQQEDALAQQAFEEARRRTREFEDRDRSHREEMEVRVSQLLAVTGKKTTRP

The term AC50 denotes the midpoint of the concentration-response curve, whichever way the signal moves. With `CCN(CC)c1ccc2cc(C(N)=O)c(=O)oc2c1`, the AC50 in “cells [1]” was 0.573 µM (active).

The term IC50 denotes the concentration needed to halve the response being measured. For `O=c1[nH]c(=O)c2nc(-c3ccc(Cl)cc3)cnc2[nH]1`, the IC50 is 0.643 µM (active) in [2] and > 100 µM (inactive) in [4]. For the same compound, the AC50 in the assay “cells [3]” and in “cells [5]” was > 52 µM (inactive) in each case.

With `O=C(NC(Cc1c[nH]c2ccccc12)C(=O)Nc1ccc(OC(F)(F)F)cc1)c1cccs1` (stereo not drawn), the IC50 in assay [6] is > 69.5 µM (inactive); in assay [7], 11 µM (inactive).

For the compound `CC(C)(C)[S+]([O-])N1Cc2cc(C(=O)NCCCN3CCOCC3)nc(-c3cccc(C#CCC4CCCC4)c3)c2[C@@H]1CCO` (stereo partly drawn), the figures for the AC50 (in assay [8]; at Paired box protein Pax-8; in [9]) were 40.4 µM (active), 24 µM (active) and 4.02 µM (active), respectively.

For the compound `COC(=O)C1=C(C)N(Cc2ccc(Cl)cc2)C(=S)NC1c1cccc(F)c1` (stereo not drawn), the AC50 (in assay [10]; in the assay on HEK293) was 21.4 µM (active) each time.

As to `N#C[C@@H]1[C@@H](c2ccc(C#Cc3ccccc3F)cc2)[C@H](CO)N1C(=O)C1CCCCC1`, the AC50 is 25 µM (active) in assay [11]; 32.4 µM (active) in assay [12]; 33.4 µM (active) in assay [13]; 53.3 µM (active) in [14]; 25.8 µM (active) in assay [15]; 9.74 µM (active) on Paired box protein Pax-8. Moreover, the results for the AC50 in assay [16] and in assay [17] were 37.5 µM (active) and 28.6 µM (active), respectively.

Regarding `CCC(=O)N1C[C@@H](C)[C@@H](OC)CN(C)C(=O)c2cc(NC(=O)CC(F)(F)F)ccc2OC[C@@H]1C`, the AC50 in assay [18] is 4 µM (active).

For `Oc1ccc(CCNc2c3ccccc3nc3ccccc23)cc1`, in assay [19], the IC50 was 0.7 µM (active).

For `C[C@@H](O)C#Cc1ccc2c(c1)O[C@@H](CN(C)Cc1ccc(-c3ccccc3Cl)cc1)[C@@H](C)CN([C@@H](C)CO)S2(=O)=O`, the AC50 in [20] was 1.43 µM (active); in assay [21], > 52 µM (inactive); in [22] it was 0.601 µM (active); in assay [23], 1.18 µM (active).

Take `CC(C)c1ccccc1NCCn1c(=S)[nH]c2ccccc21`: the half-maximal activity concentration (AC50) in “cells [24]” is 27.5 µM (active); in [25], 21.1 µM (active).

As for `Cn1c(NC(=O)c2ccccc2F)nc2ccccc21`, in [26], the AbsAC90 stood at 128.74 µM.

For orientation: GI50 means the concentration that inhibits growth by half. In the case of `CCCCCCCCCCCCCCCCOP(=O)([O-])OCC[N+](C)(C)C` [MILTEFOSINE], the 50% inhibitory concentration (IC50) in assay [27] is 0.478 µM (active); in assay [28], 3.39 µM (active); in assay [29], 0.437 µM (active); in assay [30], 1.48 µM (active); in assay [31] it was 1.49 µM (active); in assay [32], 0.965 µM (active). Further, the half-inhibitory concentration (IC50) in assay [33] was 1.23 µM (active); in [34] it was 1.96 µM (active). The GI50 with P388 was 21.2 µM (inactive); in the assay with P388/ADR, 35.4 µM (inactive).

Consider `Nc1ccc2cc3ccc(N)cc3nc2c1` [PROFLAVINE HEMISULFATE], for which the IC50 in “cells [35]” was > 33.3 µM (inactive); in assay [36], 20.6 µM (inactive); in assay [37], > 10 µM (inactive); in assay [38], > 10 µM (inactive).
